Assay results reported in ChEMBL document CHEMBL4376858, “Structure-Activity Relationships of Novel Thiazole-Based Modafinil Analogues Acting at Monoamine Transporters” (J Med Chem, 2020).
pIC50: −log10 of the molar value.

What was measured:
[1] = target: Sodium-dependent dopamine transporter (Homo sapiens, UniProt Q01959); test: Inhibition of wild type human dopamine transporter expressed in HEK293 cells assessed as inhibition of [3H]dopamine reuptake preincubated for 5 mins followed by [3H]dopamine addition and measured after 1 min by liquid scintillation analysis; format: cell-based; conditions: for pIC50: read-out: IC50
Sodium-dependent dopamine transporter, sequence (Q01959 whole entry): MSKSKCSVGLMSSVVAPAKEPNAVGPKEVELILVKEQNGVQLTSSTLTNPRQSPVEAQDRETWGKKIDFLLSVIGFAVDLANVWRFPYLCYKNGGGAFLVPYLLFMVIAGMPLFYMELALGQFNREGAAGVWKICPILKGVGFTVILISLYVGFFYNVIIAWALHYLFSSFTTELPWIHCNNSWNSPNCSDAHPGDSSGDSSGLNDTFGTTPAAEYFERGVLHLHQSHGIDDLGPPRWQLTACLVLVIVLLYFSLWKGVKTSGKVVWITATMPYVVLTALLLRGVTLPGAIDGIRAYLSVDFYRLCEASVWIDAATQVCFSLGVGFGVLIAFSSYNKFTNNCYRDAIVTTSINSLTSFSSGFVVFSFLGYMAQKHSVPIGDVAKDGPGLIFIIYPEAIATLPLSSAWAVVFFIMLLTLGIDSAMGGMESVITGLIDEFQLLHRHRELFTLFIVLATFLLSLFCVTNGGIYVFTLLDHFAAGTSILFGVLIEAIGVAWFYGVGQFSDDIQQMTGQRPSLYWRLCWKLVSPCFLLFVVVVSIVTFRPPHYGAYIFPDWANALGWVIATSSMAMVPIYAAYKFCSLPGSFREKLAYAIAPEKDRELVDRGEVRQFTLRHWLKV

[2] = target: Sodium-dependent serotonin transporter (Homo sapiens, UniProt P31645); format: cell-based, HEK293; conditions: for IC50: hek293; for pIC50: read-out: IC50
Sodium-dependent serotonin transporter, sequence (P31645 whole entry): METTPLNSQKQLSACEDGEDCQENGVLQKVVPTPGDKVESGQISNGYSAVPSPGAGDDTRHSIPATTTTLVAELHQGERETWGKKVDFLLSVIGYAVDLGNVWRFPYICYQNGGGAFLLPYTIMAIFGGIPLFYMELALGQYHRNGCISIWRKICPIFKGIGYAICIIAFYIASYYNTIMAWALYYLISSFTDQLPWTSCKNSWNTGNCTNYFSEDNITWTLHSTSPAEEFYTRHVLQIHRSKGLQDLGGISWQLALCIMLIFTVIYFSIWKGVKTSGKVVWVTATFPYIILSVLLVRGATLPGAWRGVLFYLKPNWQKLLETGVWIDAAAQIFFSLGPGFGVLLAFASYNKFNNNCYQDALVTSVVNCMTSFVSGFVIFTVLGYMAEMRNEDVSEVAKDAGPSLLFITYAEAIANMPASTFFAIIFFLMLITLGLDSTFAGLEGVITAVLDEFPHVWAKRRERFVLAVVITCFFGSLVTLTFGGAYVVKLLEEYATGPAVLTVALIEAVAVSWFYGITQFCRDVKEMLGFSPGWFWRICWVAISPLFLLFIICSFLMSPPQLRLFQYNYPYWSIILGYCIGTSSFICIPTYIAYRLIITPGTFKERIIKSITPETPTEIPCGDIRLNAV
Description: Inhibition of wild type human SERT expressed in HEK293 cells assessed as inhibition of [3H]-5HT reuptake preincubated for 5 mins followed by [3H]5HT addition and measured after 1 min by liquid scintillation counting analysis

[3] = target: Sodium-dependent noradrenaline transporter (Homo sapiens, UniProt P23975); test: Inhibition of wild type human NET expressed in HEK293 cells assessed as inhibition of [3H]-MPP+ reuptake preincubated for 5 mins followed by [3H]MPP+ addition and measured after 3 mins by liquid scintillation counting analysis; format: cell-based; conditions: for pIC50: read-out: IC50; for IC50: hek293
Sodium-dependent noradrenaline transporter, sequence (P23975 whole entry): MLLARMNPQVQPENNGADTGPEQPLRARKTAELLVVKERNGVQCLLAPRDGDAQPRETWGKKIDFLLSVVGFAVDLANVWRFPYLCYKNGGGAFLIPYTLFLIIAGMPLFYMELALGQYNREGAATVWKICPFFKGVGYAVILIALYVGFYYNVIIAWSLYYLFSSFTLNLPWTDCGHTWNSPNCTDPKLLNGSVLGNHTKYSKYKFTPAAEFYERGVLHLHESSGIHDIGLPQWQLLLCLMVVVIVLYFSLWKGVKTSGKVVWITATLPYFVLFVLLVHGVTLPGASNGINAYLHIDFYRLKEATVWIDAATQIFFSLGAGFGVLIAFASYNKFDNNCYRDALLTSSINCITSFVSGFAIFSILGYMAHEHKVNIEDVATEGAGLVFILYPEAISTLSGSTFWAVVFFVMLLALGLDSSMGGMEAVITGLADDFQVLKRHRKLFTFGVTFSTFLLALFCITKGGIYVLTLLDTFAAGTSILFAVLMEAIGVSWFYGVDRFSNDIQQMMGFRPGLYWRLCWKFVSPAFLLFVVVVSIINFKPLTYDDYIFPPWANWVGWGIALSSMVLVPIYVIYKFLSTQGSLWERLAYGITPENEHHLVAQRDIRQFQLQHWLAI

Row | Structure (SMILES) | pIC50 [1] | IC50 [2] | pIC50 [3] | pIC50 [2] | IC50 [3] | IC50 ([1]; hek293)
1 | [O-][S@@+](Cc1cncs1)[C@@H](c1ccccc1)c1ccc(Br)cc1 | 5.80 | Not Active | 3.25 | – | – | –
2 | Cc1nc(C[S+]([O-])C(c2ccccc2)c2ccccc2)sc1C (centres undefined) | 4.48 | – | 3.97 | 3.70 | – | –
3 | Cc1nc(C[S+]([O-])C(c2ccccc2)c2ccccc2)c(C)s1 (centres undefined) | 4.32 | Not Active | – | – | Not Active | –
4 | [O-][S+](Cc1cnc(Cl)s1)C(c1ccccc1)c1ccccc1 (centres undefined) | 4.61 | Not Active | 3.97 | – | – | –
5 | [O-][S@@+](Cc1cncs1)[C@@H](c1ccccc1)c1ccc(C(F)(F)F)cc1 | 4.40 | Not Active | – | – | Not Active | –
6 | Cc1nc(CC[S+]([O-])C(c2ccccc2)c2ccccc2)cs1 (centres undefined) | 4.21 | Not Active | – | – | Not Active | –
7 | Cc1ncc(C[S+]([O-])C(c2ccccc2)c2ccccc2)s1 (centres undefined) | 4.17 | Not Active | – | – | Not Active | –
8 | [O-][S+](Cc1csc(C2CC2)n1)C(c1ccccc1)c1ccccc1 (centres undefined) | 5.39 | – | 3.16 | 3.36 | – | –
9 | CCc1nc(C[S+]([O-])C(c2ccccc2)c2ccccc2)cs1 (centres undefined) | 4.83 | Not Active | – | – | Not Active | –
10 | [O-][S+](Cc1csc(Cl)n1)C(c1ccccc1)c1ccccc1 (racemic) | 5.52 | Not Active | – | – | Not Active | –
11 | [O-][S+](Cc1cncs1)C(c1ccc(Cl)cc1)c1ccc(Cl)cc1 (racemic) | 5.38 | – | 4.34 | 3.66 | – | –
12 | CC(C)(C)c1ncc(C[S+]([O-])C(c2ccccc2)c2ccccc2)s1 (centres undefined) | 4.22 | Not Active | – | – | Not Active | –
13 | Cc1ccc([C@@H](c2ccccc2)[S@+]([O-])Cc2cncs2)cc1 | 4.71 | – | 4.17 | 3.70 | – | –
14 | [O-][S@@+](Cc1cncs1)[C@H](c1ccccc1)c1ccc(F)cc1 | 5.13 | Not Active | 3.98 | – | – | –
15 | Cc1ccc(C(c2ccc(C)cc2)[S+]([O-])Cc2csc(C3CC3)n2)cc1 (centres undefined) | – | Not Active | – | – | Not Active | Not Active
16 | Cc1nc(C)c(C[S+]([O-])C(c2ccccc2)c2ccccc2)s1 (centres undefined) | 4.06 | Not Active | – | – | Not Active | –

Row | Structure (SMILES) | pIC50 [1] | IC50 [2] | pIC50 [3] | pIC50 [2] | IC50 [3] | IC50 ([1]; hek293)
17 | [O-][S@+](Cc1cncs1)[C@H](c1ccccc1)c1ccc(Br)cc1 | 5.33 | – | 4.64 | 4.53 | – | –
18 | Cc1cnc(C[S+]([O-])C(c2ccccc2)c2ccccc2)s1 (centres undefined) | 4.18 | Not Active | – | – | Not Active | –
19 | Cc1ccc(C(c2ccc(C)cc2)[S+]([O-])Cc2cncs2)cc1 (stereo in doubt; 34b) | 3.45 | Not Active | – | – | – | –
20 | [O-][S@@+](Cc1cncs1)[C@@H](c1ccccc1)c1ccc(F)cc1 | 5.70 | Not Active | 3.89 | – | – | –
21 | Cc1ccc([C@@H](c2ccccc2)[S@@+]([O-])Cc2cncs2)cc1 | 5.22 | Not Active | – | – | Not Active | –
22 | Cc1ccc([C@H](c2ccccc2)[S@+]([O-])Cc2cncs2)cc1 | 3.87 | Not Active | – | – | Not Active | –
23 | CC(C)c1nc(C[S+]([O-])C(c2ccccc2)c2ccccc2)cs1 (centres undefined) | 4.61 | Not Active | – | – | Not Active | –
24 | [O-][S@+](Cc1cncs1)[C@@H](c1ccccc1)c1ccc(Br)cc1 | 4.65 | Not Active | 3.44 | – | – | –
25 | [O-][S@+](Cc1cncs1)C(c1ccc(F)cc1)c1ccc(F)cc1 | 4.65 | Not Active | – | – | Not Active | –
26 | Cc1ccc(C(c2ccc(C)cc2)[S+]([O-])Cc2cncs2)cc1 (stereo in doubt; 34a) | 5.17 | – | – | 3.58 | Not Active | –
27 | CCCc1nc(C[S+]([O-])C(c2ccccc2)c2ccccc2)cs1 (centres undefined) | 4.55 | Not Active | – | – | Not Active | –
28 | COc1ccc(C(c2ccc(OC)cc2)[S+]([O-])Cc2cncs2)cc1 (centres undefined) | 4.15 | Not Active | – | – | Not Active | –
29 | COc1ccc(C(c2ccc(OC)cc2)[S+]([O-])Cc2csc(C3CC3)n2)cc1 (centres undefined) | 3.98 | Not Active | – | – | Not Active | –
30 | Cc1ccc(C(c2ccc(C)cc2)[S+]([O-])Cc2cncs2)cc1 (racemic) | 4.98 | – | 3.67 | – | – | –
31 | COc1ccc([C@@H](c2ccccc2)[S@+]([O-])Cc2cncs2)cc1 | 4.44 | – | 3.58 | 4.61 | – | –
32 | [O-][S@+](Cc1cncs1)[C@H](c1ccccc1)c1ccc(F)cc1 | 5.08 | – | 3.64 | 3.84 | – | –
